Assay results published in PubChem BioAssay AID248 (DTP/NCI, 2004).
Where “and” joins values, the source holds several entries; their conditions need not be identical. Equal values may be shown once. Inconclusive results and toxic doses are left out. No stated cut-off is given here; in the data, active means T/C of 150% or more; inactive means T/C below 125%.

Test system: L1210 leukemia ip in BDF1 mice, survival T/C
Test: NCI In Vivo Anticancer Drug Screen. Data for tumor model L1210 Leukemia (intraperitoneal) in B6D2F1 (BDF1) mice
Conditions: endpoint: mean survival time, higher = longer survival
Procedure, shortened: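 Value reflects the ratio of survival in compound-treated mice to survival in vehicle-treated controls, with both groups carrying the same transplanted tumor.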

[1] = dose: 6.25 mg/kg/injection, schedule: Q01DX009 (ip), vehicle: Klucel (hydroxypropylcellulose) (HPC)
[2] = dose: 12.5 mg/kg/injection, schedule: Q04DX003 (ip), vehicle: Klucel (hydroxypropylcellulose) (HPC)
[3] = dose: 25.0 mg/kg/injection, schedule: Q04DX003 (ip), vehicle: Klucel (hydroxypropylcellulose) (HPC)
[4] = dose: 100.0 mg/kg/injection, schedule: Q01DX009 (ip), vehicle: saline with Tween-80
[5] = dose: 200.0 mg/kg/injection, schedule: Q01DX009 (ip), vehicle: saline with Tween-80
[6] = dose: 400.0 mg/kg/injection, schedule: Q01DX009 (ip), vehicle: saline with Tween-80
[7] = dose: 100.0 mg/kg/injection, schedule: Q04DX003 (ip), vehicle: saline with Tween-80
[8] = dose: 200.0 mg/kg/injection, schedule: Q04DX003 (ip), vehicle: saline with Tween-80
[9] = dose: 400.0 mg/kg/injection, schedule: Q04DX003 (ip), vehicle: saline with Tween-80
[10] = dose: 100.0 mg/kg/injection, schedule: Q01DX009 (ip), vehicle: Klucel (hydroxypropylcellulose) (HPC)
[11] = dose: 100.0 mg/kg/injection, schedule: Q04DX003 (ip), vehicle: Klucel (hydroxypropylcellulose) (HPC)
[12] = dose: 200.0 mg/kg/injection, schedule: Q01DX009 (ip), vehicle: Klucel (hydroxypropylcellulose) (HPC)
[13] = dose: 200.0 mg/kg/injection, schedule: Q04DX003 (ip), vehicle: Klucel (hydroxypropylcellulose) (HPC)
[14] = dose: 400.0 mg/kg/injection, schedule: Q04DX003 (ip), vehicle: Klucel (hydroxypropylcellulose) (HPC)
[15] = dose: 50.0 mg/kg/injection, schedule: Q01DX009 (ip), vehicle: Klucel (hydroxypropylcellulose) (HPC)

Measured: T/C

CC[C@@H]1CN(C)[C@H]2Cc3c([nH]c4ccccc34)C(=O)C[C@H]1C2C(=O)OC (stereo not given in full)
inactive: dose: 75.0 mg/kg/injection, schedule: Q01DX001 (ip), vehicle: carboxymethylcellulose (CMC) 97 % of control | dose: 150.0 mg/kg/injection, schedule: Q01DX001 (ip), vehicle: carboxymethylcellulose (CMC) 95 % of control | dose: 300.0 mg/kg/injection, schedule: Q01DX001 (ip), vehicle: carboxymethylcellulose (CMC) 95 % of control

CCC[CH2][Pb]([CH2]CCC)([CH2]CCC)[O]C(=O)CCl
inactive: dose: 1.56 mg/kg/injection, schedule: Q01DX009 (ip), vehicle: Klucel (hydroxypropylcellulose) (HPC) 98 % of control | dose: 3.13 mg/kg/injection, schedule: Q01DX009 (ip), vehicle: Klucel (hydroxypropylcellulose) (HPC) 104 % of control | [1] 94 % of control and 98 % of control | [2] 101 % of control | [3] 100 % of control

O=[N+]([O-])c1ccc(CCc2ccc([N+](=O)[O-])cc2)cc1
inactive: dose: 50.0 mg/kg/injection, schedule: Q01DX001 (ip), vehicle: other 91 % of control | dose: 100.0 mg/kg/injection, schedule: Q01DX001 (ip), vehicle: other 95 % of control | dose: 200.0 mg/kg/injection, schedule: Q01DX001 (ip), vehicle: other 97 % of control | dose: 400.0 mg/kg/injection, schedule: Q01DX001 (ip), vehicle: other 95 % of control

CCN1CC(C)(C)N(C(=O)c2ccccc2)CC1(C)C
inactive: dose: 5.0 mg/kg/injection, schedule: Q01DX001 (ip), vehicle: carboxymethylcellulose (CMC) 98 % of control | dose: 10.0 mg/kg/injection, schedule: Q01DX001 (ip), vehicle: carboxymethylcellulose (CMC) 106 % of control | dose: 20.0 mg/kg/injection, schedule: Q01DX001 (ip), vehicle: carboxymethylcellulose (CMC) 95 % of control | dose: 40.0 mg/kg/injection, schedule: Q01DX001 (ip), vehicle: carboxymethylcellulose (CMC) 109 % of control | dose: 80.0 mg/kg/injection, schedule: Q01DX001 (ip), vehicle: carboxymethylcellulose (CMC) 98 % of control

O=C(CCC(C(=O)c1ccccc1)c1ccccc1)c1ccccc1 (stereo not given)
inactive: [4] 104 % of control | [5] 87 % of control | [6] 88 % of control

CCCCOCN1C(=O)NC(c2ccccc2)(c2ccccc2)C1=O
inactive: dose: 50.0 mg/kg/injection, schedule: Q01DX009 (ip), vehicle: saline with Tween-80 108 % of control | [4] 94 % of control

CC(C)N(CCNc1nc(C(Cl)(Cl)Cl)nc2cc(Cl)ccc12)C(C)C
inactive: [7] 93 % of control | [8] 94 % of control

CC(=O)Nc1ccc(S(=O)(=O)C2=CC(=O)c3ccccc3C2=O)cc1
inactive: dose: 100.0 mg/kg/injection, schedule: Q01DX001 (ip), vehicle: saline 95 % of control

CN1C2CCC1C(=O)N(Cc1ccccc1)C2=O
inactive: [7] 102 % of control | [8] 93 % of control | [9] 101 % of control

Cc1c(Cl)cccc1NC(=O)c1ccccc1
inactive: [10] 93 % of control | [11] 91 % of control | [12] 96 % of control | [13] 106 % of control | dose: 400.0 mg/kg/injection, schedule: Q01DX009 (ip), vehicle: Klucel (hydroxypropylcellulose) (HPC) 100 % of control | [14] 98 % of control

c1ccc(C2CC([P+](c3ccccc3)(c3ccccc3)c3ccccc3)=NN2)cc1 (stereo not given)
inactive: dose: 3.12 mg/kg/injection, schedule: Q01DX009 (ip), vehicle: Klucel (hydroxypropylcellulose) (HPC) 103 % of control | [1] 120 % of control | dose: 6.25 mg/kg/injection, schedule: Q04DX003 (ip), vehicle: Klucel (hydroxypropylcellulose) (HPC) 110 % of control | dose: 12.5 mg/kg/injection, schedule: Q01DX002 (ip), vehicle: Klucel (hydroxypropylcellulose) (HPC) 114 % of control | dose: 12.5 mg/kg/injection, schedule: Q01DX009 (ip), vehicle: Klucel (hydroxypropylcellulose) (HPC) 92 % of control | [2] 108 % of control | dose: 25.0 mg/kg/injection, schedule: Q01DX001 (ip), vehicle: Klucel (hydroxypropylcellulose) (HPC) 104 % of control | dose: 25.0 mg/kg/injection, schedule: Q01DX002 (ip), vehicle: Klucel (hydroxypropylcellulose) (HPC) 104 % of control | [3] 108 % of control | dose: 50.0 mg/kg/injection, schedule: Q01DX001 (ip), vehicle: Klucel (hydroxypropylcellulose) (HPC) 97 % of control | dose: 50.0 mg/kg/injection, schedule: Q01DX002 (ip), vehicle: Klucel (hydroxypropylcellulose) (HPC) 97 % of control | dose: 50.0 mg/kg/injection, schedule: Q04DX003 (ip), vehicle: Klucel (hydroxypropylcellulose) (HPC) 97 % of control

C=COCCN1C(=O)c2ccccc2C1=O
inactive: dose: 100.0 mg/kg/injection, schedule: Q04DX002 (ip), vehicle: Klucel (hydroxypropylcellulose) (HPC) 102 % of control | dose: 200.0 mg/kg/injection, schedule: Q04DX002 (ip), vehicle: Klucel (hydroxypropylcellulose) (HPC) 120 % of control | dose: 400.0 mg/kg/injection, schedule: Q04DX002 (ip), vehicle: Klucel (hydroxypropylcellulose) (HPC) 106 % of control

CCN(CC)CCOc1ccccc1-c1nc2ccccc2s1
inactive: dose: 25.0 mg/kg/injection, schedule: Q01DX009 (ip), vehicle: Klucel (hydroxypropylcellulose) (HPC) 104 % of control | [15] 98 % of control | [10] 96 % of control and 108 % of control

Nc1nc(N)c2nc(CBr)cnc2n1
inactive: dose: 6.25 mg/kg/injection, schedule: Q01DX009 (ip), vehicle: saline 105 % of control | dose: 12.5 mg/kg/injection, schedule: Q01DX009 (ip), vehicle: saline 88 % of control | dose: 25.0 mg/kg/injection, schedule: Q01DX009 (ip), vehicle: saline 115 % of control

CCOc1ccc2[nH]c(=S)sc2c1
inactive: [15] 93 % of control | [10] 102 % of control | [11] 105 % of control | [12] 86 % of control | [13] 89 % of control | [14] 100 % of control

CCCCCCCCCCCCCCCC(=O)c1ccccc1
inactive: dose: 100.0 mg/kg/injection, schedule: Q01DX001 (ip), vehicle: Klucel (hydroxypropylcellulose) (HPC) 106 % of control | dose: 200.0 mg/kg/injection, schedule: Q01DX001 (ip), vehicle: Klucel (hydroxypropylcellulose) (HPC) 103 % of control | dose: 400.0 mg/kg/injection, schedule: Q01DX001 (ip), vehicle: Klucel (hydroxypropylcellulose) (HPC) 88 % of control

O=C(O)C(c1cccs1)c1cccs1
inactive: [4] 102 % of control | [7] 102 % of control | [5] 88 % of control | [8] 92 % of control | [6] 105 % of control | [9] 103 % of control
